Experimental data taken from patent publication US20040236125A1, “Novel structures and compositions comprising sterols and/or stanols and specific classes of anti-inflammatory agents and use thereof in treating or preventing cardiovascular disease, its underlying conditions including hyperlipidemia and other disorders having inflammation as part of their …” (FORBES MEDI-TECH INC., priority 2002, published 2004).
Like-named read-outs stand apart in the source and are kept apart here.

What was measured:
COX-1 = COX-1 (Ovis aries, UniProt P05979); conditions: 0.45 μM, n=3
Description: (§1) In summary, FDC-2-4 was treated with a 1:1 ratio of porcine pancreatic lipase and colipase (PL/C). Inhibition of cyclooxygenase was determined using a colorimetric (ovine) COX inhibitor screening assay. The conversion of arachidonic acid to prostaglandin H2 was monitored by a colorimetric reaction. […] Reaction was initiated by adding 100-μM arachidonic acid and 100-μM tetramethyl-p-phenylenediamine (TMPD—the colourimetric substrate). The optical density of the colored product was determined at 620 nm. Acetylsalicylate was used as a positive control in all experiments.
(§2) The solution was vortexed for 2 min. and sonicated for 5 min. before adding 2.5 mg porcine pancreatic lipase and 2.5 mg porcine colipase. The reaction was incubated at room temperature for 2 hours.
(§3) Inhibition was determined using a colorimetric (ovine) COX inhibitor screening assay (Cayman Chemicals). The conversion of arachidonic acid to prostaglandin H2 was monitored by a colorimetric reaction. COX was exposed to the inhibitors for 5 minutes. Reaction was initiated by adding 100-μM arachidonic acid and 100-μM tetramethyl-p-phenylenediamine (TMPD—the colourimetric substrate). The optical density of the colored product was determined at 620 nm 5 minutes after initiation. […] PL/C-treated FDC-2-4 was compared with non-PL/C-treated FDC-2-4 and control (no FDC-2-4 added) in determining COX inhibition. Acetylsalicylate (ASA), was used as a positive control in all experiments. Statistical Analysis on all treatment groups were done using ANOVA and Tukey Posthoc tests.

COX-2 = COX-2 (Ovis aries, UniProt P79208); conditions: 4.5 μM, n=3
Description: as §1, §2, §3

[1] = tested on: cholesterol absorption in the intestine; conditions: 20 mg/kg single-dose oral gavage in Intralipid 10% emulsion; blood 10 hours after gavage; FIG. 3
Description: Adult male Sprague Dawley rats (˜350 g) were maintained under a 12 h light (0700-1900)/dark cycle and supplied with a laboratory standard diet and water ad libitum prior to starting the experiment.
Both groups received a single-dose oral gavage at 0700. Blood collection was performed by cardiac puncture 10 hours after oral gavage. Animals were fasted after gavage. Access to water was permitted ad libitum during the experiment. Blood obtained by cardiac puncture was collected in EDTA-coated tubes and centrifuged. Plasma samples were analyzed for [3H] cholesterol by radioactivity.
Adult male Sprague Dawley rats were given one of the derivatives of the present invention in an oral formulation containing:
20 mg/kg sterol/stanol analogue
1 mg unlabeled cholesterol
25 μCi [3H] Cholesterol in an emulsion with Intralipid 10%.
Animals were fasted 12-16 hours before and 10 hours after the oral gavage was performed. Blood samples were collected by cardiac puncture 10 hours following oral gavage. Plasma samples obtained by centrifugation were analyzed for [3H] Cholesterol and results expressed as a percentage of inhibition of cholesterol absorption in the intestine.
In addition sodium hydroxide was added to adjust the pH so that the final product pH is 8.0; pH range is 6.0 to 8.9. […] Each animal received 20 mg/kg body weight test substance dissolved in water or other appropriate solvent. […]

[2] = PL/C-treated (pancreatic lipase/colipase)

Chain of COX-2 (P79208 17-603): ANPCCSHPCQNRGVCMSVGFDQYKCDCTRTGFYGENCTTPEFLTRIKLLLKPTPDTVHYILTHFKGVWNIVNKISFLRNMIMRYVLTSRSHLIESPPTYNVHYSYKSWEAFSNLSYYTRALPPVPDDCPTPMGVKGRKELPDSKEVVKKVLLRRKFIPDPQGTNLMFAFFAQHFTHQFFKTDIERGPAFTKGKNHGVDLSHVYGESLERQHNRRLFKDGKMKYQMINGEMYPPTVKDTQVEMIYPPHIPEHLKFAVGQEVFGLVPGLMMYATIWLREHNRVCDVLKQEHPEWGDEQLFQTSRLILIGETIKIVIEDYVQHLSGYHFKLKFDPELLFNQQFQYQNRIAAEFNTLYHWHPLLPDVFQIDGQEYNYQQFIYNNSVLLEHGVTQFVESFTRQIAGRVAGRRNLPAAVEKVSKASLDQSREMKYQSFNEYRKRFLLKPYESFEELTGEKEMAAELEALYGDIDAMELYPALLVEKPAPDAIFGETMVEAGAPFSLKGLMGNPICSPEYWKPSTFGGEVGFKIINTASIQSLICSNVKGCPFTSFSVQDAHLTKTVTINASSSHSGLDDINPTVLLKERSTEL
Chain of COX-1 (P05979 25-600): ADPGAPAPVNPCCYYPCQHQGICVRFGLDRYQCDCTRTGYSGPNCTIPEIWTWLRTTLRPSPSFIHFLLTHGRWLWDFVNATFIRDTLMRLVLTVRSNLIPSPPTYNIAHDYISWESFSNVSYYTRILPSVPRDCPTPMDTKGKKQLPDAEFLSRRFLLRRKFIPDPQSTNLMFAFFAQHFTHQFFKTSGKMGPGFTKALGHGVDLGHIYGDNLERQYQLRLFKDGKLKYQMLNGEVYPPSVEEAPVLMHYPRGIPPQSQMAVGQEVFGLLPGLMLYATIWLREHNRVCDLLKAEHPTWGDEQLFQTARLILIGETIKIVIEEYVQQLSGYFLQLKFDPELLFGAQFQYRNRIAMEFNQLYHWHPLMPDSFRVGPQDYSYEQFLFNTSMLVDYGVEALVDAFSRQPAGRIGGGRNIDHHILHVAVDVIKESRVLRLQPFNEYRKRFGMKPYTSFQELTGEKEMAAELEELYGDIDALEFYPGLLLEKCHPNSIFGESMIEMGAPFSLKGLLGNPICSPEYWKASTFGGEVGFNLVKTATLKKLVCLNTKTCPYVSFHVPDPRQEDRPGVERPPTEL

With acetoxyphytostanyl salicylate [FDC-2-4] the “inhibition of COX-1 activity” value (COX-1; [2]) was 69%, the “inhibition of COX-1 activity” value (COX-1; non-PL/C-treated) was 20% and the “inhibition of COX-2” value (COX-2; [2]) was 88%. The “inhibition of COX-2” value (COX-2; non-PL/C-treated) was 64% and the “inhibition of cholesterol absorption (plasma [3H] cholesterol) compared with controls and VP4” value [1] was “significantly outperforms both the controls and VP4”.
